One experiment relates to NK-YS. The experiment can be described thus: drug sensitivity score (viability inhibition); higher = more sensitive. As to conditions: 72 h; IL2 2.5 ng/ml. As for the experimental part: (§1)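 NK-cell leukemia/lymphoma cell lines (3,000 cells/well) were cultured with IL2 2.5 ng/ml in 384-well drug plates (5-8 concentrations over a 10,000-fold range) for 72 h at 37 C; viability was read with CellTiter-Glo. DSS is a normalised area under the dose-response curve; the experiment was repeated twice.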

The next experiment deals with KAI3. The experiment is described as above. As to conditions: 72 h; IL2 2.5 ng/ml. The procedure:
as §1

The subject of the next experiment is SNK6. The description is as above. To be noted: 72 h; IL2 2.5 ng/ml. The procedure: as §1
A further experiment has as its system NK-92. The experiment is described as above. As to conditions: 72 h; IL2 2.5 ng/ml. As for the experimental part: as §1
For the next experiment, the system named is KHYG-1. Described as above. To be noted: 72 h; IL2 2.5 ng/ml. The procedure: as §1
A further experiment relates to YT. Described as above. As to conditions: 72 h; IL2 2.5 ng/ml. The procedure:
as §1

The next experiment has as its system NKL. The description is as above. As to conditions: 72 h; IL2 2.5 ng/ml. As for the experimental part: as §1
In another experiment the test system is HEK293-SIE STAT3 WT. Briefly: drug sensitivity score (inhibition of STAT3 luciferase reporter); higher = stronger inhibition. As to conditions: 6 h; STAT3: WT; IL6 100 ng/ml. As for the experimental part: (§2)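 HEK293 cells with a STAT3-inducible (SIE) luciferase reporter, stably expressing WT STAT3 (IL6 100 ng/ml) or Y640F STAT3 (no IL6), were incubated 6 h with drugs in 384-well plates (5-8 concentrations over a 10,000-fold range); luciferase was read with ONE-Glo. DSS is a normalised area under the dose-response curve; values are the mean of two experiments.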

Another experiment has as its system HEK293-SIE STAT3 Y640F. The experiment is described as above. As to conditions: 6 h; IL6 0 ng/ml. The procedure: as §2

Take `CC1(C)CCC(c2ccc(Cl)cc2)=C(CN2CCN(c3ccc(C(=O)NS(=O)(=O)c4ccc(N[C@H](CCN5CCOCC5)CSc5ccccc5)c(S(=O)(=O)C(F)(F)F)c4)cc3)CC2)C1` [Navitoclax]: the drug sensitivity score in the experiment with NK-YS is 27.6 DSS; in the experiment with KAI3, 39.8 DSS; in the experiment with SNK6 it was 39.1 DSS; in the experiment with NK-92 it was 14.2 DSS; in the experiment with KHYG-1, 25.9 DSS; in the experiment on YT, 23.3 DSS. Further, the drug sensitivity score came to 22.4 DSS in the experiment with NKL, 0 DSS in the experiment on HEK293-SIE STAT3 WT and 0.5 DSS with HEK293-SIE STAT3 Y640F.
With `Cc1cc(Nc2nc(N[C@@H](C)c3ncc(F)cn3)ncc2Cl)[nH]n1` [AZD1480], the drug sensitivity score is 10.7 DSS in the experiment with NK-YS; 17.4 DSS with KAI3; 12.1 DSS in the experiment with SNK6; 7.65 DSS in the experiment with NK-92; 18.3 DSS with KHYG-1; 6.65 DSS in the experiment with YT. The results for the drug sensitivity score in the experiment on NKL, with HEK293-SIE STAT3 WT and with HEK293-SIE STAT3 Y640F were 13.7 DSS, 17.9 DSS and 8.77 DSS, respectively.
With `COc1ncc(-c2ccc3nccc(-c4ccnnc4)c3c2)cc1NS(=O)(=O)c1ccc(F)cc1F` [Omipalisib], the drug sensitivity score in the experiment on NK-YS turned out to be 12.1 DSS; in the experiment on KAI3, 6.45 DSS; in the experiment on SNK6 it was 5.15 DSS; in the experiment on NK-92 it was 11.6 DSS; with KHYG-1, 9.27 DSS; with YT, 10.9 DSS. The drug sensitivity score in the experiment on NKL was 11.3 DSS; in the experiment on HEK293-SIE STAT3 WT it was 5.9 DSS; in the experiment with HEK293-SIE STAT3 Y640F, 8.15 DSS.
Regarding `CCNC(=O)c1noc(-c2cc(C(C)C)c(O)cc2O)c1-c1ccc(CN2CCOCC2)cc1` [Luminespib], the drug sensitivity score in the experiment on NK-YS stood at 26.9 DSS; in the experiment with KAI3, 25.6 DSS; in the experiment with SNK6, 19.6 DSS; with NK-92, 27.4 DSS; in the experiment with KHYG-1, 24 DSS; in the experiment with YT it was 18.6 DSS. In addition, the drug sensitivity score in the experiment on NKL is 29.1 DSS; in the experiment on HEK293-SIE STAT3 WT it was 16.3 DSS; with HEK293-SIE STAT3 Y640F it was 12.8 DSS.
With `COc1cc2c(cc1-c1c(C)noc1C)ncc1[nH]c(=O)n([C@H](C)c3ccccn3)c12` [I-BET151], the drug sensitivity score in the experiment with NK-YS is 12.2 DSS; in the experiment on KAI3 it was 4.86 DSS; in the experiment on SNK6 it was 11.6 DSS; with NK-92, 1.34 DSS; in the experiment on KHYG-1, 13.3 DSS; in the experiment on YT it was 7.05 DSS. In addition, the figures for the drug sensitivity score in the experiment with NKL, in the experiment with HEK293-SIE STAT3 WT and in the experiment on HEK293-SIE STAT3 Y640F were 8.89 DSS, 11.5 DSS and 4.4 DSS, respectively.
For the molecule `NC1(c2ccc(-c3nc4ccn5c(=O)[nH]nc5c4cc3-c3ccccc3)cc2)CCC1` [MK-2206], the drug sensitivity score in the experiment with NK-YS came out at 5 DSS; in the experiment on KAI3, 6.43 DSS; with SNK6, 2.89 DSS; in the experiment with NK-92, 6.29 DSS; in the experiment with KHYG-1, 4.1 DSS; in the experiment on YT, 2.45 DSS. For the same molecule, the drug sensitivity score worked out at 4.44 DSS with NKL, 5.85 DSS in the experiment with HEK293-SIE STAT3 WT and 0 DSS with HEK293-SIE STAT3 Y640F.
Consider `CC(=O)OC[C@H]1O[C@@H]([S-])[C@H](OC(C)=O)[C@@H](OC(C)=O)[C@@H]1OC(C)=O.CCP(CC)CC.[Au+]` [Auranofin], for which the drug sensitivity score amounted to 8.08 DSS with NK-YS; 2.72 DSS in the experiment on KAI3; 8.28 DSS in the experiment on SNK6; 4.86 DSS in the experiment on NK-92; 5.84 DSS in the experiment on KHYG-1; 8.63 DSS in the experiment with YT. In addition, the drug sensitivity score with NKL is 8.44 DSS; with HEK293-SIE STAT3 WT, 5.9 DSS; in the experiment on HEK293-SIE STAT3 Y640F, 2.05 DSS.
With `Cc1cc(Nc2cc(CN3CCOCC3)c3nc(C)c(Cc4ccc(Cl)cc4F)n3n2)n[nH]1` [Gandotinib], the drug sensitivity score with HEK293-SIE STAT3 WT was found to be 24 DSS; with HEK293-SIE STAT3 Y640F it was 8.4 DSS.

These data come from the supplement of paper PMC5722580.
